Source: patent US20240023546A1, “TRIGEMINAL CUE FOR WILDLIFE REPELLENTS” (The United States of America, as Represented by the …, priority 2022, published 2024)

System: cottontail rabbits
Assay: no-choice feeding experiment, repellency of cottontail rabbits from treated whole oats
Type: in vivo
Excerpt: As used herein, the term “repellency” means the percent decrease in consumption (or occupancy) of a treated substrate relative to an untreated substrate. […] These values can be used to define a range, such as 50% to 75%, or 75% to 85%, or 25% to 50% decrease in consumption (or occupancy) of a treated substrate relative to an untreated substrate.
We conducted one no-choice feeding experiment for each unique combination of the trigeminal nerve irritant (methyl anthranilate) and the animal repellent (anthraquinone). For each feeding experiment, we used 24-30 cottontail rabbits to evaluate the efficacy of our repellent formulations. For each experiment, we offered untreated food for up to three days of the pretreatment and repellent-treated food during the 1-day test. For each experiment, our three test treatments (n=8−10 rabbits per treatment group) included food treated with (1) the methyl anthranilate alone, (2) the anthraquinone alone and (3) the combination of the methyl anthranilate and the anthraquinone.

SMILES | % Repellency (rabbit, in vivo) [%] | % Repellency (whole oats treated with 5000 ppm MA alone, 1-day no-choice test) [%] | % Repellency (whole oats treated with 5000 ppm MA alone, 1-day no-choice test, listed as MA) [%] | % Repellency (whole oats treated with 10,000 ppm MA alone, 1-day no-choice test) [%]
O=C1c2ccccc2C(=O)c2ccccc21 [anthraquinone, 9,10-anthraquinone] | 36 |  |  | 
COC(=O)c1ccccc1N [methyl anthranilate] |  | 6 | 6 | 62
